Reference: the NIST ThermoML archive (doi:10.1016/j.fluid.2014.11.020)
± gives the expanded uncertainty stated by the source.

Assay: activity coefficient (dimensionless); of the first substance listed, at infinite dilution; xn = mol fraction of the nth substance listed
Details: Liquid, Chromatography, x1 = 0

Structure (SMILES)	activity coefficient (323.15 K)	activity coefficient (333.15 K)	activity coefficient (343.15 K)
Cc1ccccc1C [1,2-dimethylbenzene] + Cn1cc[n+](COCCCOC[n+]2ccn(C)c2)c1.O=S(=O)([N-]S(=O)(=O)C(F)(F)F)C(F)(F)F.O=S(=O)([N-]S(=O)(=O)C(F)(F)F)C(F)(F)F	2.08 ± 0.14	2.1 ± 0.14	2.04 ± 0.14
c1ccccc1 [benzene] + CCCOC[n+]1ccn(Cc2ccccc2)c1.N#C[N-]C#N	1.51 ± 0.1	1.5 ± 0.1	1.5 ± 0.1
ClCCl [dichloromethane] + CCCCCCCCn1cc[n+](COCCCOC[n+]2ccn(CCCCCCCC)c2C)c1C.O=S(=O)([N-]S(=O)(=O)C(F)(F)F)C(F)(F)F.O=S(=O)([N-]S(=O)(=O)C(F)(F)F)C(F)(F)F	0.3 ± 0.03	0.3 ± 0.03	0.32 ± 0.03
C#CCCCCC [1-heptyne] + N#C[N-]C#N.N#C[N-]C#N.c1ccc(Cn2cc[n+](COCCCOC[n+]3ccn(Cc4ccccc4)c3)c2)cc1	19.1 ± 1.3	17.2 ± 1.2	15.9 ± 1.1
ClCCl [dichloromethane] + CCCOC[n+]1ccn(C)c1.N#C[N-]C#N	0.69 ± 0.05	0.74 ± 0.05	0.78 ± 0.05
ClCCl [dichloromethane] + CCCOC[n+]1ccc(N(C)C)cc1.O=S(=O)([N-]S(=O)(=O)C(F)(F)F)C(F)(F)F	0.57 ± 0.04	0.62 ± 0.04	0.63 ± 0.04
Cc1ccccc1C [1,2-dimethylbenzene] + CCCCCCCCn1cc[n+](COCCC)c1C.N#C[N-]C#N	1.33 ± 0.09	1.33 ± 0.09	1.33 ± 0.09
Cc1ccccc1C [1,2-dimethylbenzene] + CCCOC[n+]1ccn(Cc2ccccc2)c1.F[B-](F)(F)F	4.3 ± 0.29	4.17 ± 0.28	4.22 ± 0.29
CC1CCCC1 [methylcyclopentane] + CCCCCCCCn1cc[n+](COCCC)c1C.N#C[N-]C#N	4.37 ± 0.3	4.16 ± 0.28	4.16 ± 0.28
CCCCCCCCCCCC [dodecane] + CCCCCCCCn1cc[n+](COCCCOC[n+]2ccn(CCCCCCCC)c2C)c1C.N#C[N-]C#N.N#C[N-]C#N	28.7 ± 2	30.6 ± 2.1	27.9 ± 1.9
CC1CCCC1 [methylcyclopentane] + Cn1cc[n+](COCCCOC[n+]2ccn(C)c2)c1.O=S(=O)([N-]S(=O)(=O)C(F)(F)F)C(F)(F)F.O=S(=O)([N-]S(=O)(=O)C(F)(F)F)C(F)(F)F	16.4 ± 1.1	10.2 ± 0.7	
CCCCCCCCCCC [undecane] + CCCOC[n+]1ccn(C)c1.N#C[N-]C#N	556 ± 38	504 ± 35	432 ± 30
c1ccccc1 [benzene] + CCCOC[n+]1ccc(N(C)C)cc1.O=S(=O)([N-]S(=O)(=O)C(F)(F)F)C(F)(F)F	0.74 ± 0.05	0.78 ± 0.05	0.78 ± 0.05
c1ccsc1 [thiophene] + CCCOC[n+]1ccn(Cc2ccccc2)c1.F[B-](F)(F)F	1.33 ± 0.09	1.27 ± 0.08	1.25 ± 0.08
CCC(C)=O [butanone] + Cn1cc[n+](COCCCOC[n+]2ccn(C)c2)c1.O=S(=O)([N-]S(=O)(=O)C(F)(F)F)C(F)(F)F.O=S(=O)([N-]S(=O)(=O)C(F)(F)F)C(F)(F)F	0.36 ± 0.03	0.34 ± 0.03	0.32 ± 0.03
CC(C)O [propan-2-ol] + CN(C)c1cc[n+](COCCCOC[n+]2ccc(N(C)C)cc2)cc1.O=S(=O)([N-]S(=O)(=O)C(F)(F)F)C(F)(F)F.O=S(=O)([N-]S(=O)(=O)C(F)(F)F)C(F)(F)F	1.42 ± 0.09	1.3 ± 0.08	1.18 ± 0.08
CCCO [propan-1-ol] + CN(C)c1cc[n+](COCCCOC[n+]2ccc(N(C)C)cc2)cc1.O=S(=O)([N-]S(=O)(=O)C(F)(F)F)C(F)(F)F.O=S(=O)([N-]S(=O)(=O)C(F)(F)F)C(F)(F)F	1.51 ± 0.1	1.37 ± 0.09	1.22 ± 0.08
CCCCCCCCC [nonane] + CN(C)c1cc[n+](COCCCOC[n+]2ccc(N(C)C)cc2)cc1.O=S(=O)([N-]S(=O)(=O)C(F)(F)F)C(F)(F)F.O=S(=O)([N-]S(=O)(=O)C(F)(F)F)C(F)(F)F	60.7 ± 4.2	52 ± 3.6	47.2 ± 3.2
ClCCl [dichloromethane] + CCCCCCCCn1cc[n+](COCCCOC[n+]2ccn(CCCCCCCC)c2C)c1C.N#C[N-]C#N.N#C[N-]C#N	0.28 ± 0.03	0.29 ± 0.03	0.31 ± 0.03
C1COCCO1 [1,4-dioxane] + CCCCCCCCn1cc[n+](COCCC)c1C.O=S(=O)([N-]S(=O)(=O)C(F)(F)F)C(F)(F)F	0.5 ± 0.04	0.49 ± 0.04	0.49 ± 0.04
CCCCCCCC [octane] + CCCCCCCCn1cc[n+](COCCC)c1C.O=S(=O)([N-]S(=O)(=O)C(F)(F)F)C(F)(F)F	5.76 ± 0.39	5.48 ± 0.37	5.17 ± 0.35
